# Test results taken from US11214803B2, “Modulators of YAP1 expression” (Ionis Pharmaceuticals, Inc., priority 2019, dated 2022).
# Strand notation (5' to 3'): a small letter for the sugar, then the base; units joined by * are phosphorothioate-linked, units joined directly phosphodiester-linked; [ ] holds rarer units or linkages, { } end groups; capitals alone tell only the bases. k = constrained ethyl (cEt); [5mC] = 5-methylcytosine; d = 2'-deoxy (DNA)
# Assays:
# [1] = Cynomolgus monkey tolerability, coagulation (Example 34); assay type: in vivo; conditions: cynomolgus monkeys, 35 mg/kg subcutaneously, blood samples day 44
# Protocol: To evaluate effect of Ionis modified oligonucleotides on coagulation in cynomolgus monkeys, blood samples of approximately 0.9 mL were collected from each of the available study animals on day 44. The samples were collected in tubes containing 3.2% sodium citrate. Coagulation parameters tested include Activated partial thromboplastin time (APTT), prothrombin time (PT) and Figrinogen (FIB).
# [2] = Cynomolgus monkey tolerability, body and organ weight measurements (Example 34); assay type: in vivo; conditions: cynomolgus monkeys, 35 mg/kg subcutaneously, loading doses days 1, 3, 5, 7, then once per week
# Protocol: Cynomolgus monkeys were treated with Ionis modified oligonucleotides selected from studies described in the Examples above. Modified oligonucleotide tolerability was evaluated.
# During the study period, the monkeys were observed twice daily for signs of illness or distress. Any animal experiencing more than momentary or slight pain or distress due to the treatment, injury or illness was treated by the veterinary staff with approved analgesics or agents to relieve the pain after consultation with the Study Director. Any animal in poor health or in a possible moribund condition was identified for further monitoring and possible euthanasia. Scheduled euthanasia of the animals was conducted on day 86 approximately 48 hours after the last dose by exsanguination while under deep anesthesia. The protocols described in the Example were approved by the Institutional Animal Care and Use Committee (IACUC).
# To evaluate the effect of Ionis oligonucleotides on the overall health of the animals, body and organ weights were measured. Terminal body weight was measured prior to necropsy.
# [3] = Cynomolgus monkey tolerability, pro-inflammatory proteins analysis, Complement C3 and CRP (Example 34); assay type: in vivo; conditions: cynomolgus monkeys, 35 mg/kg subcutaneously, day 42 pre-dose and 24 hours post-dose
# Protocol: To evaluate any inflammatory effect of Ionis oligonucleotides in cynomolgus monkeys, blood samples were taken for analysis. The monkeys were fasted overnight prior to blood collection. On day 42 (pre-dose and 24 hours post-dose), approximately 0.8 mL of blood was collected from each animal and put into tubes without anticoagulant for serum separation. […] Complement C3 were measured using a Toshiba 120 FR NEO chemistry analyzer (Toshiba Co., Japan). […] Another marker of inflammation, C-Reactive Protein (CRP) was tested together with the clinical chemistry parameters tested for liver function above.
# [4] = Cynomolgus monkey tolerability, hematology (Example 34); assay type: in vivo, cynomolgus monkeys; conditions: cynomolgus monkeys, 35 mg/kg subcutaneously, blood samples day 44
# Protocol: To evaluate any effect of Ionis oligonucleotides in cynomolgus monkeys on hematologic parameters, blood samples of approximately 0.5 mL of blood was collected from each of the available study animals on day 44. The samples were collected in tubes containing K2-EDTA. Samples were analyzed for red blood cell (RBC) count, Hemoglobin (HGB), Hematocrit (HCT), Mean corpuscular volume (MCV), mean corpuscular hemoglobin (MCH), mean corpuscular hemoglobin concentration (MCHC), RBC Distribution Width (RCDW), reticulocyte count (Retic), platelet count (PLT), mean platelet volume (MPV), white blood cells (WBC) count, individual white blood cell counts, such as that of monocytes (MON), neutrophils (NEU), lymphocytes (LYM), eosinophils (EOS), basophils (BAS), and large unstained cells (LUC) using an ADVIA2120i hematology analyzer (Siemens, USA).
# [5] = Cynomolgus monkey tolerability, kidney and liver function markers (Example 34); conditions: cynomolgus monkeys, 35 mg/kg subcutaneously, blood samples day 44
# SNU449 xenograft tumor = test: Tumor volume in SNU449 xenograft tumor model, alone and in combination with sorafenib (second Example 30); assay type: in vivo, human; conditions: SNU449 xenograft in mice
# Protocol: Modified oligonucleotides described in the studies above were tested in a hepatocellular carcinoma SNU449 xenograft tumor model. […] A control oligonucleotide 792169, described herein above, was also tested.
# Five million SNU449 cells in 30% matrigel were implanted subcutaneously into the fatpads of female NOD.Cg-Prkdcscid II2rgtmlWjl/SzJ mice (from Jackson Laboratory) at 4-6 weeks of age. 43 days post implantation (when tumors had reached approximately 100 mm^3 in size), groups of eight mice each were administered with 50 mg/kg modified oligonucleotide daily for 10 days (loading dose), following which they were administered with 50 mg/kg modified oligonucleotide four times a week for one week, following which they were dosed with 50 mg/kg modified oligonucleotide thrice weekly until the end of the study. […] Animals were sacrificed, and tumors were collected on day 119 post implantation.
# Tumor volumes were also measured at the indicated days in the table below.
# ERK1/2 = test: Measurement of ERK activation (pERK/ERK) in SNU449 xenograft model with sorafenib (second Example 30); assay type: in vivo, human; conditions: SNU449 xenograft in mice, combination therapy compared with sorafenib treatment alone
# Protocol: Five million SNU449 cells in 30% matrigel were implanted subcutaneously into the fatpads of female NOD.Cg-Prkdcscid II2rgtmlWjl/SzJ mice (from Jackson Laboratory) at 4-6 weeks of age. 43 days post implantation (when tumors had reached approximately 100 mm^3 in size), groups of eight mice each were administered with 50 mg/kg modified oligonucleotide daily for 10 days (loading dose), following which they were administered with 50 mg/kg modified oligonucleotide four times a week for one week, following which they were dosed with 50 mg/kg modified oligonucleotide thrice weekly until the end of the study.
# Protein analysis was carried out using standard procedures. […] ERK protein levels were compared to internal control GAPDH. […] The secondary antibody used was donkey anti-rabbit NA934, GE Healthcare. pERK/ERK levels were calculated relative to PBS control to determine % activation of ERK1/2.
# [6] = Cynomolgus monkey tolerability, urine analysis (Example 34); conditions: cynomolgus monkeys, 35 mg/kg subcutaneously, day 44
# Protocol: Prior to the study, the monkeys were kept in quarantine during which the animals were observed daily for general health. The monkeys were 2-4 years old and weighed 2-4 kg. Eleven groups of 4 randomly assigned male cynomolgus monkeys each were injected subcutaneously with Ionis oligonucleotide or saline in a clock-wise rotation between four different sites on the back. Following loading doses on days 1, 3, 5 and 7, the monkeys were dosed once per week (on days 14, 21, 28, 35, and 42) with 35 mg/kg of Ionis oligonucleotide.
# Food was removed overnight the day before fresh urine collection, but water was supplied. Fresh urine samples for urinalysis and urine chemistry were collected from all animals using a clean cage pan on wet ice (first in the morning) on day 44. Urinalysis/Urine Chemistry parameters creatinine (UCRE), microprotein (UTP), urine microalbumin (UALB), and protein/creatinine (P/C) ratio were measured using a Toshiba 120FR automated chemistry analyzer (Toshiba Co., Japan).
# [7] = Tolerability in Balb/c mice, body and organ weights (Example 13); assay type: in vivo; conditions: male Balb/c mice, 50 mg/kg s.c. twice a week for four weeks (8 treatments), end of study (day 25)
# Protocol: (§1) Groups of male Balb/c mice at 4-6 weeks of age (obtained from Taconic) were injected subcutaneously twice a week for four weeks (for a total of 8 treatments) with 50 mg/kg of modified oligonucleotides. One group of male Balb/c mice was injected with PBS. Mice were euthanized on day 25 post start of treatment (24 hours following the final administration).
# Body weights of Balb/c mice were measured at the end of the study, and the average body weight for each group is presented in the table below. Modified oligonucleotides that caused any changes in organ weights outside the expected range for modified oligonucleotides were excluded from further studies.
# [8] = Tolerability in Balb/c mice, plasma chemistry markers (Example 13); assay type: in vivo; conditions: male Balb/c mice, 50 mg/kg s.c. twice a week for four weeks (8 treatments), day 25
# Protocol: Balb/c mice were treated with modified oligonucleotides selected from studies described above and evaluated for changes in the levels of various plasma chemistry markers.
# as §1
# Yap1 mRNA [9] = test: Dose-dependent inhibition of human Yap1 in A-431 cells (Example 7, 10,000 cells per well, RTS36584); assay type: cell-based; conditions: free uptake; for Yap1 mRNA, % UTC: A-431 cells 10,000 cells per well, 48 hours
# Summary of the method: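 A-431 cells at 10,000 per well received modified oligonucleotides by free uptake at several doses. After about 48 hours, Yap1 mRNA was quantified with primer-probe set RTS36584, normalized to RIBOGREEN total RNA and expressed as % untreated control. IC50 came from linear regression on a log/linear plot.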
# [10] = Tolerability in CD-1 mice, body and organ weights (Example 18); assay type: in vivo; conditions: male CD-1 mice, 50 mg/kg s.c. twice a week (total of 9 treatments), end of study (day 34)
# Protocol: (§2) Groups of four male CD-1 mice at 5-6 weeks of age (obtained from Charles River) were injected subcutaneously twice a week for four weeks (for a total of 9 treatments) with 50 mg/kg of modified oligonucleotides. One group of male CD-1 mice was injected with PBS. Mice were euthanized on day 34 post start of treatment (24 hours following the final administration).
# Body weights of CD-1 mice were measured at the end of the study, and the average body weight for each group is presented in the table below. Modified oligonucleotides that caused any changes in organ weights outside the expected range for modified oligonucleotides were excluded from further studies.
# [11] = Tolerability in Sprague-Dawley rats, plasma chemistry markers (Example 20); assay type: in vivo; conditions: male Sprague-Dawley rats, 50 mg/kg s.c. weekly for 6 weeks (7 doses), 48 hours after last dose
# Protocol: Sprague-Dawley rats are a multipurpose model used for safety and efficacy evaluations. The rats were treated with Ionis modified oligonucleotides from the studies described in the Examples above and evaluated for changes in the levels of various plasma chemistry markers.
# Yap1 mRNA [12] = test: Dose-dependent inhibition of human Yap1 in SNU-449 cells (Example 9, RTS36584); assay type: cell-based; conditions: free uptake; for % UTC (Yap1 mRNA): approximately 48 hours
# Summary of the method: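 SNU-449 cells (10,000/well) took up modified oligonucleotides by free uptake at a range of doses for about 48 h. Yap1 mRNA was quantified with primer-probe set RTS36584, normalised to RIBOGREEN total RNA and expressed as % untreated control; IC50 from linear regression on log/linear plot.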
# [13] = Tolerability in Sprague-Dawley rats, body and organ weights (Example 20); assay type: in vivo; conditions: male Sprague-Dawley rats, 50 mg/kg s.c. weekly for 6 weeks (7 doses)
# Protocol: Terminal body weight was measured prior to necropsy. Ionis oligonucleotides that caused any changes in organ weights outside the expected range for modified oligonucleotides were excluded from further studies.
# [14] = Tolerability in CD-1 mice, plasma chemistry markers (Example 18); assay type: in vivo; conditions: male CD-1 mice, 50 mg/kg s.c. twice a week (total of 9 treatments), day 34
# Protocol: CD-1 mice were treated with modified oligonucleotides selected from studies described above and evaluated for changes in the levels of various plasma chemistry markers.
# as §2
# [15] = Tolerability in Sprague-Dawley rats, kidney function, urine total protein to creatinine ratio (Example 20); conditions: male Sprague-Dawley rats, 50 mg/kg subcutaneously weekly for 6 weeks (total 7 doses)
# Protocol: Male Sprague-Dawley rats were maintained on a 12-hour light/dark cycle and fed ad libitum with Purina normal rat chow. Groups of 4 Sprague-Dawley rats each were weekly injected subcutaneously with 50 mg/kg of Ionis oligonucleotide for 6 weeks (total 7 doses). Forty-eight hours after the last dose, the rats were euthanized; and organs, urine and plasma were harvested for further analysis.
# To evaluate the effect of Ionis oligonucleotides on kidney function, urinary levels of total protein and creatinine were measured using an automated clinical chemistry analyzer (Hitachi Olympus AU400c, Melville, N.Y.).
# Yap1 mRNA [16] = test: Dose-dependent inhibition of human Yap1 in A-431 cells (Example 8, 10,000 cells per well, RTS4814); assay type: cell-based; conditions: free uptake, approximately 48 hours, RTS4814; for Yap1 mRNA, % UTC: A-431 cells, 10,000 cells per well
# Summary of the method: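 A-431 cells (10,000/well) dosed with modified oligonucleotides by free uptake; Yap1 mRNA measured ~48 h later with primer-probe set RTS4814, normalized to total RNA (RIBOGREEN). Values are % of untreated control; IC50 from linear regression on log/linear plot.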
substance,measurement,setting,value
"ION 1198440 (AAGTGTATGTCAGAAG; cEt, 2'-MOE, 5-methylcytosine, phosphorothioate modifications, further chemistry not given here)",effect on coagulation parameters,[1],well tolerated
same,effect on body and organ weights,[2],well tolerated
same,inflammation (Complement C3),[3],did not cause any inflammation
same,effect on hematologic parameters,[4],well tolerated
same,effect on liver function,[5],well tolerated
same,tumor volume,SNU449 xenograft tumor; 50 mg/kg modified oligonucleotide alone,significant reduction in tumor volume
same,"tumor volume, combination with sorafenib",SNU449 xenograft tumor; 50 mg/kg modified oligonucleotide plus 30 mg/kg sorafenib orally 7 times a week,further reduction in tumor volume
same,"ERK1/2 activation (pERK/ERK relative to PBS control), combination with sorafenib",ERK1/2,significant decrease in ERK1/2 activation
same,urine chemistry markers,[6],well tolerated
958371 (antisense kA*k[5mC]*k[5mC]*dA*dA*d[5mC]*dT*dA*dT*dT*dA*d[5mC]*dT*kT*k[5mC]*kA) [compound 958371],Kidney weight,[7],0.32 g
same,Liver weight,[7],1.31 g
same,Spleen weight,[7],0.15 g
same,body weight,[7],23 g
same,ALT,[8],249 U/L
same,AST,[8],199 U/L
same,BUN,[8],30 mg/dL
same,TBIL,[8],0.24 mg/dL
same,"Yap1 mRNA, % UTC","Yap1 mRNA [9]; Table 56, 15.6 nM",89 % UTC
same,"Yap1 mRNA, % UTC","Yap1 mRNA [9]; Table 56, 62.5 nM",57 % UTC
same,"Yap1 mRNA, % UTC","Yap1 mRNA [9]; Table 56, 4000.00 nM",11 % UTC
same,IC50,"Yap1 mRNA [9]; Table 56, A-431 cells 10,000 cells per well",100 nM
1076481 (k[5mC]*kT*kA*dA*dG*dT*dA*dA*dG*dG*dT*dT*dT*k[5mC]*k[5mC]*k[5mC]) [compound 1076481],Kidney weight,[10],0.57 g
same,Liver weight,[10],2.06 g
same,Spleen weight,[10],0.23 g
same,body weight,[10],39 g
same,ALB,[11],2.74 g/dL
same,ALT,[11],50 U/L
same,AST,[11],91 U/L
same,BUN,[11],49 mg/dL
same,TBIL,[11],0.13 mg/dL
same,% UTC (Yap1 mRNA),Yap1 mRNA [12]; 31.3 nM,86 % UTC
same,% UTC (Yap1 mRNA),Yap1 mRNA [12]; 125.0 nM,40 % UTC
same,% UTC (Yap1 mRNA),Yap1 mRNA [12]; 500.0 nM,15 % UTC
same,% UTC (Yap1 mRNA),Yap1 mRNA [12]; 2000.00 nM,3 % UTC
same,IC50,Yap1 mRNA [12]; linear regression on a log/linear plot,100 nM
same,Kidney weight,[13]; end of study,2.6 g
same,Liver weight,[13]; end of study,14 g
same,Spleen weight,[13]; end of study,2.1 g
same,body weight,"[13]; terminal, prior to necropsy",367 g
same,ALT,[14],71 U/L
same,AST,[14],121 U/L
same,BUN,[14],23 mg/dL
same,TBIL,[14],0.23 mg/dL
same,URINE P/C ratio (total protein to creatinine ratio),[15],5
same,"Yap1 mRNA, % UTC",Yap1 mRNA [16]; 31.3 nM,21 % UTC
same,"Yap1 mRNA, % UTC",Yap1 mRNA [16]; 125.0 nM,4 % UTC
same,"Yap1 mRNA, % UTC",Yap1 mRNA [16]; 500.0 nM,2 % UTC
same,"Yap1 mRNA, % UTC",Yap1 mRNA [16]; 2000.00 nM,3 % UTC
same,IC50,"Yap1 mRNA [16]; A-431 cells, linear regression on log/linear plot",< 20 nM
